{
  "source": "patent US20100015620A1",
  "about": "“CANCER-LINKED GENES AS BIOMARKERS TO MONITOR RESPONSE TO IMPDH INHIBITORS” (priority 2006, published 2010)",
  "key": {"[1]": {"tested_on": "HT-29, K-562 and KG-1 cells", "experiment": "GTP pool depletion and repletion, and cell cycle block, in cell lines", "type": "cell-based, human", "procedure": "The present identification of relevant biomarkers was cognizant of the need to capture genes that move with respect to relevant clinical experiments. For example, IMPDH inhibition results in the cell cycle halting at the G1 border. […] Concentration depletion of GTP was measured in HT-29, K-562 and KG-1 cells. DMSO was used as control. […] For example, PDE7A and RRM2 were deregulated only on GTP repletion (which occurred within 90 minutes after drug removal). Thus, the present experiments have correlated gene involvement with the real biological endpoint for IMPDH inhibition."}, "[2]": {"target": "both IMPDH isozymes", "details": "cited from earlier work"}, "[3]": {"tested_on": "human peripheral lymphocytes stimulated with either B-cell or T-cell mitogens", "details": "cited from earlier work"}},
  "data": [
    {"molecule": "CC[C@H](CC#N)OC(=O)N[C@@H](C)c1cccc(NC(=O)Nc2ccc(-c3cnco3)c(OC)c2)c1", "note": "[AVN-944]", "values": [
      {"measurement": "Effect on GTP pools", "setting": "[1]; HT-29, K-562 and KG-1 cells, DMSO control", "value": "depleted GTP pools"},
      {"measurement": "Time to GTP repletion after drug removal", "setting": "[1]; after drug removal", "value": "≤ 90", "unit": "min"},
      {"measurement": "Effect on cell cycle", "setting": "[1]; at concentrations of AVN-944 that depleted GTP pools", "value": "S phase cell cycle block"},
      {"measurement": "Ki", "setting": "[2]", "value": "7 to 10", "unit": "nM"},
      {"measurement": "IC50", "setting": "[3]", "value": "20 to 100", "unit": "nM"}
    ]}
  ]
}
